Experimental data from patent US6686394B1, “Aryl-chloro-ethyl ureas” (Sovar, Societe en Commandite, priority 1999, dated 2004).

Tests used:
[1] = tested on: K562; assay: Cytotoxicity assay G50, MTT or resazurin (Example 29); assay type: cell-based; conditions: Homo sapiens; cell line K562
Procedure: (§1) The MTT assay was as described above in Example 1. The Resazurin assay was performed as follows:
(§2) Aspirate the supernatant (cell suspension: centrifuge first)
(§3) Add 100 μL NaCl 0.9% (saline)
(§4) Add 50 μL RZ (resazurin 125 μg/ml/PBS: RPMI without FBS; 1:4)
(§5) Collect fluorescence data at different time.

[2] = tested on: T24; assay: as above; assay type: cell-based; conditions: Homo sapiens, T-24; cell line T24
Procedure: as §1, §2, §3, §4, §5

[3] = tested on: L1210; assay: as above; assay type: cell-based; conditions: Mus musculus; cell line L1210
Procedure: as §1, §2, §3, §4, §5

[4] = tested on: MCF-7; assay: as above; assay type: cell-based; conditions: Homo sapiens, MCF7; cell line MCF-7
Procedure: as §1, §2, §3, §4, §5

[5] = tested on: CHO; assay: as above; assay type: cell-based, Chinese Hamster; conditions: Cricetulus griseus; cell line CHO
Procedure: as §1, §2, §3, §4, §5

[6] = tested on: B16-F0; assay: as above; assay type: cell-based; conditions: Mus musculus, B16F0; cell line B16-F0
Procedure: (§6) Cell culture. Tumor cell lines (B16-F0, Caco-2, DU-145, HT-29, MDA-MB-231 and other cell lines described so far in the patent application) were obtained from the American Type Culture Collection (ATCC HTB-26; Bethesda, Md.). Cells were grown in RPMI 1640 medium supplemented with 10% fetal bovine serum (Hyclone, Road Logan, Utah) and were cultured in a humidified atmosphere at 37° C. in 5% CO2.
(§7) Drugs: All drugs were dissolved in DMSO and the final concentration of DMSO in the culture medium was maintained at 0.5% (v/v).
(§8) Cytotoxiciy assays. At day-1, tumor cells in suspension in 100 μl were plated in microtiter plates (96 wells). On day-0, tumor cells were treated by addition of escalating concentrations of the drug (100 μl solution). On that day, the number of living cells was determined in wells that were untreated. The number of living cells is determined using either MTT or resazurin assays. Growth inhibition activity of these compounds was expressed as the concentration of CAU inhibiting cell growth by 50% G50 in the following table
as §1, §2, §3, §4, §5

[7] = tested on: HT-29; assay: as above; assay type: cell-based; conditions: Homo sapiens; cell line HT-29
Procedure: as §6, §7, §8, §1, §2, §3, §4, §5

[8] = tested on: Caco-2; assay: as above; assay type: cell-based; conditions: Homo sapiens; cell line Caco-2
Procedure: as §6, §7, §8, §1, §2, §3, §4, §5

[9] = tested on: MDA-MB-231; assay: as above; assay type: cell-based; conditions: Homo sapiens; cell line MDA-MB-231
Procedure: as §6, §7, §8, §1, §2, §3, §4, §5

[10] = tested on: DU-145; assay: as above; assay type: cell-based; conditions: Homo sapiens; cell line DU-145
Procedure: as §6, §7, §8, §1, §2, §3, §4, §5

[11] = tested on: L1210 (mouse leukemia cells); assay: In-vitro cytotoxicity, MTT assay (Example 1); assay type: cell-based; conditions: L1210, 120 h, Table I, four to five days in the presence of drugs
Procedure: (§9) The conventional evaluation method proposed by the American National Cancer Institute was used. The method measures effectiveness of an anti-cancer drug based on IC50 which symbolizes the drug concentration in μM at which the drug achieves the inhibition of proliferation of a given line of cancer cells by a factor of one half when compared to the normal proliferation of the same line of cancer cells in the same growth media
(§10) CAU were tested on several cell lines including human non-hormone-dependant breast cancer cells (MDA-MB-231), and mouse leukemia (L1210). MDA-MB-231. These cell lines were obtained from the American Type Culture Collection (Bethesda, Md., USA). Cytotoxicity of CAU derivatives was tested and compared to the effect of chlorambucil and carmustine.
(§11) Tumor cells were grown in RPMI-1640 medium supplemented with 10% fetal calf serum, 2 mM glutamine and 64 U/mL of gentamycin. Cells were routinely passaged at 90% confluence.
(§12) Five thousand cells (100 μl) were seeded in 96 well's plate and incubated for one day at 37° C. under a humidified atmosphere, in presence of 5% CO2. […]
(§13) Cell's survival was evaluated by colorimetric assay using MTT, according to a modification of the procedure reported by Carmichael and coil. […] The plates were then shaken for 15 minutes and the absorbance read at 570 nm with a Behring Elisa Procesor II (Behring, Marburg, Germany). […]

[12] = tested on: MDA-MB-231 (human breast cancer cells); assay: In-vitro cytotoxicity, MTT assay (Example 1); assay type: cell-based; conditions: MDA-MB-231, 120 h, Table I, four to five days in the presence of drugs
Procedure: as §9, §10, §11, §12, §13

CC[C@@H](CCl)NC(=O)Nc1ccc(OC)c(OC)c1 [Example 19]
IC50 [1]: > 100 µM | IC50 [2]: > 100 µM | IC50 [3]: > 100 µM | IC50 [4]: > 100 µM | IC50 [5]: > 100 µM | IC50 [6]: > 100 µM | IC50 [7]: > 100 µM | IC50 [8]: > 100 µM | IC50 [9]: > 100 µM | IC50 [10]: > 100 µM

O=NN(CCCl)C(=O)NCCCl [Carmustine, carmustine]
IC50 [11]: 4.5 µM | IC50 [12]: 6.8 µM

COc1ccc(NC(=O)N[C@H](C)CCl)cc1OC [Example 17]
IC50 [1]: 9.62 µM | IC50 [2]: 12.4 µM | IC50 [3]: 10.3 µM | IC50 [4]: 25.1 µM | IC50 [5]: 32.2 µM | IC50 [6]: 26.4 µM | IC50 [7]: 14.8 µM | IC50 [8]: > 100 µM | IC50 [9]: 43.6 µM | IC50 [10]: 34.9 µM

COc1ccc(NC(=O)N[C@@H](C)CCl)cc1OC [Example 18]
IC50 [1]: > 100 µM | IC50 [2]: > 100 µM | IC50 [3]: > 100 µM | IC50 [4]: > 100 µM | IC50 [5]: > 100 µM | IC50 [6]: > 100 µM | IC50 [7]: > 100 µM | IC50 [8]: > 100 µM | IC50 [9]: > 100 µM | IC50 [10]: > 100 µM

CCCCCCCc1ccc(NC(=O)N[C@H](C)CCl)cc1 [Example 21]
IC50 [1]: 2.41 µM | IC50 [2]: 2.18 µM | IC50 [3]: 2.42 µM | IC50 [4]: 3.31 µM | IC50 [5]: 3.46 µM | IC50 [6]: 3.79 µM | IC50 [7]: 2.17 µM | IC50 [8]: 4.94 µM | IC50 [9]: 4.64 µM | IC50 [10]: 3.63 µM
